Source: the supplement of paper PMC10307832

Legend:
Assay in all cases: relative viability (nuclei count vs DMSO), 5 days (fraction); higher = more cells survive
[1] = compound: Cn1c(=O)n(-c2ccc(C(C)(C)C#N)cc2)c2c3cc(-c4cnc5ccccc5c4)ccc3ncc21 [Dactolisib] + COc1cccc2cc(-c3nc([C@H]4CC[C@H](C(=O)O)CC4)n4ncnc(N)c34)[nH]c12 [OSI-027] (partner 0.5 µM)
Method in brief: (§1)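 Values are medians from duplicate plates. Each reflects relative viability, defined as the nuclei count of treated wells over that of vehicle wells. Lung cancer cell lines in 1536-well plates were pin-tool dosed one day after seeding with one drug alone or with a fixed anchor-drug dose plus five library-drug doses (not always all listed) in √10 steps, then fixed, stained and imaged at 4× after 5 days.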

[2] = compound: Cn1c(=O)n(-c2ccc(C(C)(C)C#N)cc2)c2c3cc(-c4cnc5ccccc5c4)ccc3ncc21 [Dactolisib] + O=C(CCCCCCC(=O)Nc1ccccc1)NO [Vorinostat] (partner 1 µM)
Method in brief: as §1

[3] = compound: Cn1c(=O)n(-c2ccc(C(C)(C)C#N)cc2)c2c3cc(-c4cnc5ccccc5c4)ccc3ncc21 [Dactolisib] + Cc1nc(NC(=O)N2CCC[C@H]2C(N)=O)sc1-c1ccnc(C(C)(C)C(F)(F)F)c1 [Alpelisib] (partner 2 µM)
Method in brief: as §1

[4] = compound: Cn1c(=O)n(-c2ccc(C(C)(C)C#N)cc2)c2c3cc(-c4cnc5ccccc5c4)ccc3ncc21 [Dactolisib] + C[C@]1(O)C[C@@H](c2nc(-c3ccc4ccc(-c5ccccc5)nc4c3)c3c(N)nccn32)C1 [Linsitinib] (partner 1 µM)
Method in brief: as §1

Row | Cell Line | relative viability ([1]; first compound 0.002 µM) | relative viability ([1]; first compound 0.006325 µM) | relative viability ([1]; first compound 0.02 µM) | relative viability ([1]; first compound 0.06325 µM) | relative viability ([1]; first compound 0.2 µM) | relative viability ([2]; first compound 0.002 µM) | relative viability ([2]; first compound 0.006325 µM) | relative viability ([2]; first compound 0.02 µM) | relative viability ([2]; first compound 0.06325 µM) | relative viability ([2]; first compound 0.2 µM) | relative viability ([3]; first compound 0.002 µM) | relative viability ([3]; first compound 0.006325 µM) | relative viability ([3]; first compound 0.02 µM) | relative viability ([3]; first compound 0.06325 µM) | relative viability ([3]; first compound 0.2 µM) | relative viability ([4]; first compound 0.002 µM) | relative viability ([4]; first compound 0.006325 µM) | relative viability ([4]; first compound 0.02 µM) | relative viability ([4]; first compound 0.06325 µM) | relative viability ([4]; first compound 0.2 µM)
1 | NCI-H2342 | 0.684 | 0.67 | 0.572 | 0.695 | 0.518 | 0.656 | 0.832 | 0.698 | 0.75 | 0.568 |  |  |  |  |  |  |  |  |  | 
2 | HCC-15 | 0.686 | 0.678 | 0.683 | 0.473 | 0.317 | 0.961 | 0.786 | 0.85 | 0.498 | 0.373 | 0.941 | 0.832 | 0.874 | 0.417 | 0.38 | 0.976 | 0.864 | 0.873 | 0.441 | 0.367
3 | A-427 | 0.59 | 0.461 | 0.47 | 0.375 | 0.419 | 0.894 | 0.864 | 0.834 | 0.706 | 0.647 | 1.16 | 1.01 | 1.03 | 0.733 | 0.578 | 1.16 | 1.12 | 1.14 | 0.748 | 0.609
4 | NCI-H2228 | 0.497 | 0.426 | 0.417 | 0.186 | 0.176 | 0.652 | 0.682 | 0.429 | 0.327 | 0.164 | 0.786 | 0.461 | 0.421 | 0.198 | 0.234 | 0.659 | 0.488 | 0.436 | 0.323 | 0.193
5 | NCI-H1734 | 0.561 | 0.594 | 0.562 | 0.313 | 0.247 | 0.612 | 0.705 | 0.632 | 0.325 | 0.258 | 0.686 | 0.582 | 0.586 | 0.361 | 0.233 | 1.02 | 0.755 | 0.72 | 0.336 | 0.318
6 | SK-LU-1 | 0.277 | 0.42 | 0.362 | 0.283 | 0.226 | 0.766 | 0.697 | 0.671 | 0.448 | 0.321 | 1.03 | 0.94 | 0.779 | 0.363 | 0.276 | 1.26 | 0.988 | 0.728 | 0.494 | 0.397
7 | PC-14 | 0.863 | 0.755 | 0.662 | 0.2 | 0.0989 | 0.767 | 0.681 | 0.417 | 0.155 | 0.163 | 0.946 | 0.932 | 0.887 | 0.407 | 0.252 | 1.04 | 1.02 | 0.945 | 0.644 | 0.407
8 | NCI-H1915 | 0.723 | 0.704 | 0.716 | 0.535 | 0.418 | 0.556 | 0.487 | 0.531 | 0.402 | 0.453 | 1.1 | 1.06 | 1.05 | 0.747 | 0.519 | 1.11 | 1.13 | 1.11 | 0.901 | 0.631
9 | NCI-H1666 | 1.04 | 0.895 | 0.864 | 0.755 | 0.687 | 1.09 | 0.977 | 0.969 | 0.922 | 0.87 | 1.08 | 0.83 | 0.806 | 0.506 | 0.402 | 0.939 | 0.865 | 0.776 | 0.506 | 0.42
10 | HCC-366 | 0.924 | 0.863 | 0.889 | 0.469 | 0.556 | 0.285 | 0.407 | 0.325 | 0.0887 | 0.0549 | 0.329 | 0.369 | 0.401 | 0.175 | 0.134 | 0.561 | 0.453 | 0.487 | 0.185 | 0.0961
11 | SK-MES-1 | 0.612 | 0.601 | 0.603 | 0.324 | 0.242 | 0.954 | 1 | 0.998 | 0.504 | 0.475 | 1.06 | 0.842 | 0.833 | 0.474 | 0.406 | 1.1 | 1.12 | 0.999 | 0.953 | 0.467
12 | NCI-H661 | 0.701 | 0.759 | 0.652 | 0.366 | 0.339 | 0.773 | 0.766 | 0.71 | 0.455 | 0.391 | 0.823 | 0.6 | 0.62 | 0.484 | 0.225 | 0.453 | 0.454 | 0.505 | 0.223 | 0.23
13 | PC-3 [JPC-3] | 0.862 | 0.86 | 0.72 | 0.851 | 0.768 | 0.968 | 0.843 | 0.748 | 0.782 | 0.426 | 1.15 | 1.02 | 0.977 | 0.78 | 0.641 | 0.996 | 0.984 | 1.03 | 0.816 | 0.639
14 | NCI-H1623 | 0.49 | 0.431 | 0.46 | 0.38 | 0.396 |  |  |  |  |  |  |  |  |  |  |  |  |  |  | 
15 | Calu-6 |  |  |  |  |  |  |  |  |  |  | 0.99 | 0.897 | 0.694 | 0.401 | 0.338 | 0.875 | 0.939 | 0.898 | 0.492 | 0.495
16 | LC-2-ad | 0.938 | 0.844 | 0.769 | 0.582 | 0.546 | 0.857 | 0.699 | 0.749 | 0.524 | 0.496 | 0.916 |  | 0.817 | 0.64 | 0.533 | 0.722 |  | 0.751 | 0.488 | 0.565
17 | CAL-12T | 0.894 | 0.635 | 0.521 | 0.318 | 0.239 | 0.798 | 0.913 | 0.722 | 0.209 | 0.199 | 1.53 | 1.13 | 1.2 | 0.205 | 0.206 | 0.911 | 0.72 | 0.753 | 0.291 | 0.334
18 | RERF-LC-KJ | 0.699 | 0.604 | 0.585 | 0.397 | 0.433 | 0.683 | 0.699 | 0.707 | 0.452 | 0.542 | 0.806 | 0.818 | 0.742 | 0.543 | 0.551 | 0.86 | 0.908 | 0.849 | 0.646 | 0.495
